Laboratory results taken from PMC8245078, “Development of novel benzofuran-isatin conjugates as potential antiproliferative agents with apoptosis inducing mechanism in Colon cancer” (Journal of Enzyme Inhibition and Medicinal Chemistry, 2021).
Like-named read-outs stand apart in the source and are kept apart here.

Tests used:
[1] = test system: cleaved PARP in SW-620 cells; experiment: Western blot analysis of cleaved PARP; type: cell-based, human; conditions: SW-620, 5 μM and 10 μM, 24 h
Description: To further examine the possible mechanism of apoptosis, the effect of compounds 5a and 5d on certain apoptosis-related proteins was studied. Bcl2 protein as a critical component of the mitochondrial apoptotic pathway is reported to be overexpressed in numerous tumours causing survival of cancer cell[62]. In addition, it was reported that caspase activation during apoptosis leads to proteolytic cleavage of several cellular substrates participating in DNA reparation including [poly (ADP-ribose) polymerase][63]. Therefore, the impact of compounds 5a and 5d on the anti-apoptotic protein Bcl2 and the level of cleaved PARP was examined (Figure 7). […]
2.5. Western Blot Analysis
All cells were seeded in a 100 mm dish (1 × 10^6 cells per dish) in 5% CO2 at 37 °C in the appropriate culture medium. The cells with around 50% confluency were treated with compounds for 24h. At the experiment day, cells were washed with 1x PBS, harvested and lysed in RIPA lysis buffer, combined with protease inhibitors, (Sigma-Aldrich, St. Louis, MO, USA) as described previously (39)). The total protein concentration was evaluated by the colorimetric Bradford protein assay (BIO-RAD inc, CA, USA) at 595 nm absorbance. Lysates were loaded in […]
equal concentration and separated by sodium dodecyl sulfate-polyacrylamide gel electrophoresis (SDS-PAGE) and then transferred to a nitrocellulose membrane by semi-dry. […]

[2] = test system: HL60(TB); type: cell-based
[3] = test system: MOLT-4; type: cell-based; conditions: MOLT-4, five-dose test
[4] = test system: HOP-62; type: cell-based; conditions: HOP-62, five-dose test
[5] = test system: COLO 205; type: cell-based; conditions: COLO 205, five-dose test
[6] = test system: HCT-116; type: cell-based; conditions: Homo sapiens; HCT-116, five-dose test
[7] = test system: SF-295; type: cell-based, human; conditions: SF-295, five-dose test
[8] = test system: SNB-75; type: cell-based; conditions: SNB-75, five-dose test
[9] = test system: M14; type: cell-based; conditions: M14, five-dose test
[10] = test system: MDA-MB-435; type: cell-based; conditions: MDA-MB-435, five-dose test
[11] = test system: SK-MEL-2; type: cell-based; conditions: SK-MEL-2, five-dose test
[12] = test system: SK-MEL-5; type: cell-based; conditions: Homo sapiens; SK-MEL-5, five-dose test
[13] = test system: UACC-257; type: cell-based; conditions: UACC-257, five-dose test
[14] = test system: OVCAR-3; type: cell-based; conditions: Homo sapiens; OVCAR-3, five-dose test
[15] = test system: OVCAR-8; type: cell-based; conditions: OVCAR-8, five-dose test
[16] = test system: SK-OV-3; type: cell-based, human; conditions: SK-OV-3, five-dose test
[17] = test system: 786-0; type: cell-based, human; conditions: 786-0, five-dose test
[18] = test system: CAKI-1; type: cell-based, human; conditions: CAKI-1, five-dose test
[19] = test system: TK-10; type: cell-based, human; conditions: TK-10, five-dose test
[20] = test system: PC-3; type: cell-based; conditions: PC-3, five-dose test
[21] = test system: MDA-MB-231/ATCC; type: cell-based; conditions: five-dose test
[22] = test system: Renal Cancer subpanel; type: cell-based, human
[23] = test system: Full panel of NCI cancer cell lines; type: cell-based
[24] = Homo sapiens, read-out: LC50 (the source's name)

## Cc1c(C(=O)N/N=C2\C(=O)Nc3ccccc32)oc2ccccc12 [Compound 5a]
[1]
  level of cleaved PARP (Western blot, in words): significant increase

## COc1ccc2c(c1)/C(=N/NC(=O)c1oc3ccccc3c1C)C(=O)N2 [Compound 5d]
[2]; Homo sapiens, HL-60, five-dose test
  GI50: > 100 µM
[2]; Homo sapiens, HL-60, five-dose test, read-out: LC50 (the source's name)
  CC50: > 100 µM
[2]; five-dose test
  TGI: >100 µM
[3]; Homo sapiens
  LC50: > 100 µM
[3]
  TGI: >100 µM
[4]
  TGI: 4.02 µM
[4]; Homo sapiens
  GI50: 1.92 µM
[4]; [24]
  CC50: 8.44 µM
[5]
  TGI: >100 µM
[5]; Homo sapiens
  LC50 (concentration killing 50% of cells): > 100 µM
[6]
  GI50: 1.92 µM
[7]; Homo sapiens
  GI50: 2.03 µM
[7]
  TGI: 4.13 µM
[8]; Homo sapiens
  GI50: 1.25 µM
[8]; [24]
  CC50: 6.04 µM
[8]
  TGI: 2.75 µM
[9]; [24]
  CC50: > 100 µM
[9]
  TGI: >100 µM
[10]; [24]
  CC50: > 100 µM
[10]
  TGI: >100 µM
[11]; Homo sapiens
  GI50: 2.56 µM
  LC50: 54.7 µM
[11]
  TGI: 6.62 µM
[12]
  LC50 (50% lethal concentration): > 100 µM
[13]; Homo sapiens
  LC50 (concentration killing 50% of cells): > 100 µM
[13]
  TGI: >100 µM
[14]
  GI50: 1.84 µM
[15]; Homo sapiens
  GI50: 3.22 µM
  LC50: > 100 µM
[15]
  TGI: >100 µM
[16]; Homo sapiens
  GI50: 1.82 µM
[16]
  TGI: 3.83 µM
[17]
  TGI: 3.84 µM
[17]; Homo sapiens
  GI50: 1.99 µM
[18]
  TGI: 3.24 µM
[18]; Homo sapiens
  GI50: 1.56 µM
[19]; Homo sapiens
  GI50: 2.32 µM
[19]
  TGI: 4.02 µM
[20]; [24]
  CC50: > 100 µM
[20]
  TGI: >100 µM
[21]; Homo sapiens
  GI50: 2.07 µM
[21]; [24]
  CC50: > 100 µM
[21]
  TGI: 5.10 µM
[22]; Homo sapiens, Renal Cancer subpanel, read-out: MG-MID (GI50 average of the subpanel)
  GI50: 1.98 µM
[22]; full panel MID / subpanel MID, Renal Cancer
  Selectivity index: 1.26
[23]; Homo sapiens, all cancer cell lines examined except HOP-62, SNB-75 and SK-MEL-2
  LC50: > 100 µM
[23]; Homo sapiens, all examined cancer cell subpanels except HL60(TB), read-out: GI50 values range
  GI50: 1.25 to 6.07 µM
[23]; Homo sapiens, average sensitivity for all cell lines, read-out: Full panel MG-MID (GI50)
  GI50: 2.51 µM
[23]; all tested subpanels
  selectivity index range over subpanels: 0.78 to 1.30
[23]; entire Leukaemia, Colon cancer and Prostate Cancer and the remaining examined cancer cell lines
  TGI: more than 100 µM
[1]
  level of cleaved PARP (Western blot, in words): significant increase
